Literature values in PMC11195919 (Journal of pharmacy & pharmaceutical sciences : a …, 2021).

Assays:
OATP1B3 = conditions: read-out: Km of CCK-8 transport by OATP1B3

Km (OATP1B3): 3.82 µM
linear range of initial uptake of CCK-8 (primary rat hepatocyte; non-transduced rat hepatocytes): at least 1 min
Km (primary rat hepatocyte; read-out: Km of CCK-8 uptake in primary rat hepatocyte): 6.7 µM
Substance: cholecystokinin octapeptide [CCK-8]
